# What was measured:
# TIE2 = TIE2 (Homo sapiens (Human), UniProt Q02763); test: KINOMEscan competition binding assay
# Procedure: (§1) KINOMEscan™ (Ambit Biosciences, San Diego, Calif.), a high-throughput method for screening small molecular agents against a large panel of human kinases, was utilized for compound 2.
# (§2) Kinases where significant binding affinity was detected at 10 μM were retested in dose-response format to determine a dissociation constant. The size of the red circle is proportion to Kd. […] The compound binds in the “DFG-out” conformation as evident by the position of F405. Ample space is available adjacent to the gatekeeper residue T338 providing a rationale for the tolerance for a larger amino acid at this position.
# PDGFRB = PDGFRB (Homo sapiens (Human), UniProt P09619); test: KINOMEscan competition binding assay
# Sequence of PDGFRB (P09619 33-1106): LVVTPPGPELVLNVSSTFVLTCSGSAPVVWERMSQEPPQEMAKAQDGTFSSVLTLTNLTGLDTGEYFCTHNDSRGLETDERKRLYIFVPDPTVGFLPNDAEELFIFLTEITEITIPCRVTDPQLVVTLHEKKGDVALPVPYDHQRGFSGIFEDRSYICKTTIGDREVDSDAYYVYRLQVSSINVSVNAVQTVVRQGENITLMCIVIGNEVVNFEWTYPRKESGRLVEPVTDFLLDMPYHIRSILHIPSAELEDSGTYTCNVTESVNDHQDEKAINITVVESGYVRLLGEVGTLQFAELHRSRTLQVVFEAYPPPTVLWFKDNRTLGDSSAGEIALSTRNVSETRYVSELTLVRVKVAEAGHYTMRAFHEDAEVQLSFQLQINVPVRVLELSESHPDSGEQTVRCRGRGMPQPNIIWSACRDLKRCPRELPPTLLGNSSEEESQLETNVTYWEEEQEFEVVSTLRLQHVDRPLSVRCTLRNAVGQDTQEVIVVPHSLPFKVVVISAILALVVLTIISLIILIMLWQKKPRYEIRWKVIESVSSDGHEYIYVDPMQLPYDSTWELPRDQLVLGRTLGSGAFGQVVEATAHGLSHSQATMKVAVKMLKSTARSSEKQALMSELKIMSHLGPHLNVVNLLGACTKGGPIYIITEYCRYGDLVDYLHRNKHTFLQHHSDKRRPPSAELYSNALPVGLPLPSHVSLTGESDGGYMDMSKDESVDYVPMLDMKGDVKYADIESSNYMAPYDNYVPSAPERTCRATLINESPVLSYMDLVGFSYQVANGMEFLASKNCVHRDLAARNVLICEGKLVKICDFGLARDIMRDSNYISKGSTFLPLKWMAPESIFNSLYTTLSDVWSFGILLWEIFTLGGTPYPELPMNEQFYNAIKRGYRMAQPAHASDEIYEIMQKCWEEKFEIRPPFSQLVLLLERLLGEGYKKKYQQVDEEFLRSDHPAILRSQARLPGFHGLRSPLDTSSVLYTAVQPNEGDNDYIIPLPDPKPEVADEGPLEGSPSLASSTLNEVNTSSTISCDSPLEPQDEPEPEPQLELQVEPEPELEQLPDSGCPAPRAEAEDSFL
# Procedure: as §1, §2
# CDK5 = CDK5 (Homo sapiens (Human), UniProt Q00535); test: KINOMEscan competition binding assay
# Sequence of CDK5 (Q00535 whole entry): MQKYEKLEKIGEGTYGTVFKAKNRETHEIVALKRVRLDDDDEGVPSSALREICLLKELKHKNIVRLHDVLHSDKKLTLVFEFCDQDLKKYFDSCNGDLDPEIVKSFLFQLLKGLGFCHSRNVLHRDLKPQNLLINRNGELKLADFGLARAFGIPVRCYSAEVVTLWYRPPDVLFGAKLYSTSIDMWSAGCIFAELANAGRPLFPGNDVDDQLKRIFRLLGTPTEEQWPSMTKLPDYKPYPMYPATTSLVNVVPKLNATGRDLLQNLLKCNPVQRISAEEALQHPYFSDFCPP
# Procedure: as §1, §2
# DDR1 = DDR1 (Homo sapiens (Human), UniProt Q08345); test: KINOMEscan competition binding assay
# Sequence of DDR1 (Q08345 19-913): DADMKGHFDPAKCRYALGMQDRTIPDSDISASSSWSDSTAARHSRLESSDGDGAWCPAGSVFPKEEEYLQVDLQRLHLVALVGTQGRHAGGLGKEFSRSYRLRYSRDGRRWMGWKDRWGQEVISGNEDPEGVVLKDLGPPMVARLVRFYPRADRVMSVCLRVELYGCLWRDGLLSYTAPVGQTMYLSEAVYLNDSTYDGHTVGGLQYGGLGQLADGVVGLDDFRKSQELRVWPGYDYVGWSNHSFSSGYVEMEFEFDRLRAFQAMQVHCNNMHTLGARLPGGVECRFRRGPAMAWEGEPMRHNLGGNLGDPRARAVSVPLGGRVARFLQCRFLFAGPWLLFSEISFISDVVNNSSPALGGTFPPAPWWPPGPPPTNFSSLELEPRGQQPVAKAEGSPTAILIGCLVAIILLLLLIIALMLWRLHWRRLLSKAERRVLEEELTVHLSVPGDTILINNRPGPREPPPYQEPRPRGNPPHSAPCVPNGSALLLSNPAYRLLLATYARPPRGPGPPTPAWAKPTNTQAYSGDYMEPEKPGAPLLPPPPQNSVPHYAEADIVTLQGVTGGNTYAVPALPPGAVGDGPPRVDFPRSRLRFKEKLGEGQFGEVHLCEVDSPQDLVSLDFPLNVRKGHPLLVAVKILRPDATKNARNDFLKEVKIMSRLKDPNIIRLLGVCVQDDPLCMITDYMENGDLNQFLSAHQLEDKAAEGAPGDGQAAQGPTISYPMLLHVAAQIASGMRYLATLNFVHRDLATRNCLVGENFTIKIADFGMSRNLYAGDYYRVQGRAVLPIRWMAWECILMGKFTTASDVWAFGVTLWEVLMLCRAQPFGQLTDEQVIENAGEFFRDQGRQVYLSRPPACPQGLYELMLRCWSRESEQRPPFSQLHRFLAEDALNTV
# Procedure: as §1, §2
# FLT3 = FLT3 (Homo sapiens (Human), UniProt P36888); test: KINOMEscan competition binding assay
# Sequence of FLT3 (P36888 27-993): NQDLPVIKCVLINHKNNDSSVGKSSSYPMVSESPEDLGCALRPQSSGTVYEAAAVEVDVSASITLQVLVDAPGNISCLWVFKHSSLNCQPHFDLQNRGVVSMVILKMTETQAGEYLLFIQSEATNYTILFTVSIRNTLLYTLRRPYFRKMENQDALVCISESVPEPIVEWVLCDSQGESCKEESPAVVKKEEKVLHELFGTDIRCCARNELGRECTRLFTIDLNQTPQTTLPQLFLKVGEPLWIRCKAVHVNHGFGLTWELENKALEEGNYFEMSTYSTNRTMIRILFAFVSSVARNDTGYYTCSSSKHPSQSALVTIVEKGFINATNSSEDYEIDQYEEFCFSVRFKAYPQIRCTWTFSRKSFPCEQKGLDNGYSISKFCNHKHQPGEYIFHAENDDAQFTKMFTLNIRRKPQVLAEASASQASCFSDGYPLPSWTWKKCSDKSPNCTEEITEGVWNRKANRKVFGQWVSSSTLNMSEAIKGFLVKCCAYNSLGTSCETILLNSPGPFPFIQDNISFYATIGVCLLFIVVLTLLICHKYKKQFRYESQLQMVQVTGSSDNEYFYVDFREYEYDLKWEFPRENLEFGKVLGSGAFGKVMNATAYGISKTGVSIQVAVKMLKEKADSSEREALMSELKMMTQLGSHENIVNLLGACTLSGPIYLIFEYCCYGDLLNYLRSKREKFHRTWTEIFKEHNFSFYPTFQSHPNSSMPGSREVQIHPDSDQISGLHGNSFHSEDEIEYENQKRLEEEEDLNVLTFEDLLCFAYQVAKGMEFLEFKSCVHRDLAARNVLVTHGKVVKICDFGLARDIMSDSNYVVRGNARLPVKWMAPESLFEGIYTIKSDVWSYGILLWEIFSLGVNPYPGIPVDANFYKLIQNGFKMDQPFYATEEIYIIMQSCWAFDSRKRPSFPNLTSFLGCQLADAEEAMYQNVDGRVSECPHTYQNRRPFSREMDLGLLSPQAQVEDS
# Procedure: as §1, §2
# 32D-BCR-Abl-T3151 = test: Apoptosis assay; assay type: cell-based, murine; parameters: unit not given here; conditions: approximately 3 days of treatment
# Excerpt: (§3) Ba/F3.p210 cells were obtained by transfecting the IL-3-dependent marine hematopoietic Ba/F3 cell line with a pGD vector containing p210BCR-ABL (B2A2) cDNA (Daley and Baltimore, 1988; Sattler et al., 1996; Okuda et al., 1996). Murine hematopoietic 32D cells were transduced with retrovirus to express p210 Bcr-ABL (32D.p210 cells) (Matulonis et al., 1993); the 32D-T315I cell line was transfected by electroporation with the imatinib resistant BCR-ABL construct (pCI-neo Mammalian Expression Vector; Promega (#E1841) harboring the point mutation T315I (Weisberg et al., 2005). Ba/F3 cells were stably transfected by electroporation with imatinib-resistant BCR-ABL constructs (pCI-neo Mammalian Expression Vector; Promega (#E1841) harboring the point mutations T315I, F317L, F486S, and M351T; transfectants were selected for neomycin resistance and IL-3-independent growth (Weisberg et al., 2005). Ba/F3 cells were stably transfected by electroporation with BCR-ABL point mutants identified in a random mutagenesis screen for BCR-ABL point mutants conferring resistance to nilotinib: Q252H, E292K, Y253C, Y253H, E255K, and V289L (Ray et al., 2007). Ba/F3 cells were made to express Tel-PDGFRβ as described by Golub et al., 1994, and Carroll et al., 1996. Constructs of D842V-PDGFRα and V561D-PDGFRα cDNA cloned into pcDNA3.1 were stably transfected into Ba/F3 cells by electroporation, and cells were selected for neomycin resistance and IL3-independent growth as described by Weisberg et al., 2006.
# (§4) All cell lines were cultured with 5% CO2 at 37° C. in RPMI (Mediatech, Inc., Herndon, Va.) with 10% fetal calf serum (FCS) and supplemented with 1% L-glutamine. Parental Ba/F3 cells were similarly cultured with 15% WEHI-conditioned medium as a source of IL-3. Transfected cell lines were cultured in media supplemented with 1 mg/ml G418.
# (§5) Cell cycle analysis was performed using approximately 500,000 cells, which were centrifuged at 1500 rpm for 5 min, washed in PBS, and the pellet re-suspended in 500 μl of propidium iodide solution (50 μg/ml propidium iodide, 0.1% NP-40, 0.1% sodium citrate). The mixture was stored in the dark at 4° C. for a minimum of 15 min, and then analyzed by flow cytometry. Apoptosis of drug-treated cells was measured using the Annexin-V-Fluos Staining Kit (Boehringer Mannheim, Indianapolis).
# (§6) Cells cultured in the presence or absence of drug were washed 1× with phosphate-buffered saline (PBS) and centrifuged for 5 min at 1500 rpm. Washed cell pellets were re-suspended in 100 μl of 20% Annexin-V-fluorescein labeling reagent and 20% propidium iodide (PI) in HEPES buffer. Cells were incubated for 15 min at room temperature, followed by dilution with 0.8 ml of HEPES buffer. Samples were then analyzed by flow cytometry. As controls, cells were incubated for 15 min with PI alone, Annexin-V-fluorescein labeling reagent alone, or HEPES buffer, and then diluted with HEPES buffer and analyzed by flow cytometry.
# 32D-BCR-Abl = test: Apoptosis assay; assay type: cell-based, murine; parameters: unit not given here; conditions: approximately 3 days of treatment
# Excerpt: as §3, §4, §5, §6
# Ba/F3-insAY + T6701 = test: Relative IC50 in kit-expressing cell line; assay type: cell-based, murine; conditions: Mus musculus, 2.5-3 days, read-out: Relative IC50 range
# Procedure: (§7) All compounds were initially dissolved in DMSO to make 10 mM stock solutions, and then were serially diluted to obtain final concentrations for in vitro experiments.
# as §4
# Ba/F3-delWK + V654A = test: Relative IC50 in kit-expressing cell line; assay type: cell-based, murine; conditions: Mus musculus, 2.5-3 days, read-out: Relative IC50 range
# Procedure: as §7, §4
# Ba/F3-V6559D = test: Relative IC50 in kit-expressing cell line; assay type: cell-based, murine; conditions: Mus musculus, 2.5-3 days, read-out: Relative IC50 range
# Procedure: as §7, §4
# Ba/F3-insAY + V654A = test: Relative IC50 in kit-expressing cell line; assay type: cell-based, murine; conditions: Mus musculus, 2.5-3 days, read-out: Relative IC50 range
# Procedure: as §7, §4
# Ba/F3-delWK = test: Relative IC50 in kit-expressing cell line; assay type: cell-based, murine; conditions: Mus musculus, 2.5-3 days, read-out: Relative IC50 range
# Procedure: as §7, §4
# Ba/F3-delWK + T6701 = test: Relative IC50 in kit-expressing cell line; assay type: cell-based, murine; conditions: Mus musculus, 2.5-3 days, read-out: Relative IC50 range
# Procedure: as §7, §4
# Ba/F3-insAY = test: Relative IC50 in kit-expressing cell line; assay type: cell-based, murine; conditions: Mus musculus, 2.5-3 days, read-out: Relative IC50 range
# Procedure: as §7, §4
# Ba/F3-T6701 = test: Relative IC50 in kit-expressing cell line; assay type: cell-based, murine; conditions: Mus musculus, 2.5-3 days, read-out: Relative IC50 range
# Procedure: as §7, §4
# Ba/F3-delWK + Y823D = test: Relative IC50 in kit-expressing cell line; assay type: cell-based, murine; conditions: Mus musculus, 2.5-3 days, read-out: Relative IC50 range
# Procedure: as §7, §4
# Ba/F3-kit-T6701 = test: Apoptosis assay; assay type: cell-based, murine; parameters: unit not given here; conditions: approximately 3 days of treatment
# Procedure: as §4, §5, §6
# Ba/F3-PDGFRα-T674M = test: Apoptosis assay; assay type: cell-based, murine; parameters: unit not given here; conditions: approximately 3 days of treatment
# Procedure: as §4, §5, §6
# Ba/F3-PDGFRα-T674I = test: Apoptosis assay; assay type: cell-based, murine; parameters: unit not given here; conditions: approximately 3 days of treatment
# Procedure: as §4, §5, §6
# Ba/F3-PDGFRα-D842V = test: Relative IC50 in PDGFR-expressing cell line; assay type: cell-based, murine; conditions: Mus musculus, 48 h, 2 day experiment, read-out: Relative IC50 range
# Procedure: as §7, §3, §4
# Ba/F3-TEL/PDGFRβ = test: Relative IC50 in PDGFR-expressing cell line; assay type: cell-based, murine; conditions: Mus musculus, 2.5-3 days, read-out: Relative IC50 range
# Procedure: as §7, §3, §4
# Ba/F3-PDGFRα-V561D = test: Relative IC50 in PDGFR-expressing cell line; assay type: cell-based, murine; conditions: Mus musculus, 48 h, 2 day experiment, read-out: Relative IC50 range
# Procedure: as §7, §3, §4
# Sequence of TIE2 (Q02763 23-1124): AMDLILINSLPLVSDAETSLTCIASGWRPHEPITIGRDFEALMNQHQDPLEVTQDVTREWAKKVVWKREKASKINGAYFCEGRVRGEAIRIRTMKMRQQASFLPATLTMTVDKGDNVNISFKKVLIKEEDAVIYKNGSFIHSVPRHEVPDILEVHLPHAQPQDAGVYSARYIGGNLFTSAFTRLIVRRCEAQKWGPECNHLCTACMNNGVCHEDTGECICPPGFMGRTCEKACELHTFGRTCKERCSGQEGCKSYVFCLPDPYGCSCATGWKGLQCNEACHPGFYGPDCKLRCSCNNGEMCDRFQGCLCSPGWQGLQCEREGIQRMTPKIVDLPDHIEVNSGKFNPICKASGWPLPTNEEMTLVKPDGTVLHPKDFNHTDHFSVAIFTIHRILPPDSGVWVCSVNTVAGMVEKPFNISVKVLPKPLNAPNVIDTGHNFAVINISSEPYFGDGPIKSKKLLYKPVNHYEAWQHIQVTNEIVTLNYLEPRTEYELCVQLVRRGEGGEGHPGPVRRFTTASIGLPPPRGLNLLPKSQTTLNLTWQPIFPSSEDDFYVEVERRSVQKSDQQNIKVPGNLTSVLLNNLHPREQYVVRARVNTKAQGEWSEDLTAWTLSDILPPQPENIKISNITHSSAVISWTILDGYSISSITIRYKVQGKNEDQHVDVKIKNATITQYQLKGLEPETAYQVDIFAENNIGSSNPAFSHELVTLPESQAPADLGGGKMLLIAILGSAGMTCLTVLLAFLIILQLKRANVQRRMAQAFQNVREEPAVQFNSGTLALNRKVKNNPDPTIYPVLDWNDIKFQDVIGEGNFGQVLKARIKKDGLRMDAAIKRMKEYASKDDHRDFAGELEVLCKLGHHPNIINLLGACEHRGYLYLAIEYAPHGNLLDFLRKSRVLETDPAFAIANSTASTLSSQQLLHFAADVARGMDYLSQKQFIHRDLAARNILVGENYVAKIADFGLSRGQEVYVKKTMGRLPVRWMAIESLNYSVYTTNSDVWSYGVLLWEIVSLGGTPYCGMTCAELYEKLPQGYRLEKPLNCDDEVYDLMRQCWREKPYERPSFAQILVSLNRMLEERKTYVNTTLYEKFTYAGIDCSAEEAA
compound,measurement,setting,value
CCN1CCN(Cc2ccc(NC(=O)c3cccc(-c4ccc5nc(NC(=O)C6CC6)sc5n4)c3)cc2C(F)(F)F)CC1 [Compound 2],Kd,TIE2,0.057 µM
same,Kd,PDGFRB,0.0018 µM
same,Kd,CDK5,0.15 µM
same,Kd,DDR1,0.0034 µM
same,Kd,FLT3,0.0023 µM
same,Apoptotic,32D-BCR-Abl-T3151; 0.01 μM,9.0
same,Necrotic,32D-BCR-Abl-T3151; 0.01 μM,0.1
same,Viable,32D-BCR-Abl-T3151; 0.01 μM,90.88
same,Apoptotic,32D-BCR-Abl-T3151; 0.1 μM,9.8
same,Necrotic,32D-BCR-Abl-T3151; 0.1 μM,0.3
same,Viable,32D-BCR-Abl-T3151; 0.1 μM,89.9
same,Apoptotic,32D-BCR-Abl-T3151; 1.0 μM,72.7
same,Necrotic,32D-BCR-Abl-T3151; 1.0 μM,0
same,Viable,32D-BCR-Abl-T3151; 1.0 μM,27.2
same,Apoptotic,32D-BCR-Abl; 0.01 μM,5.8
same,Necrotic,32D-BCR-Abl; 0.01 μM,0.2
same,Viable,32D-BCR-Abl; 0.01 μM,94
same,Apoptotic,32D-BCR-Abl; 0.1 μM,52.3
same,Necrotic,32D-BCR-Abl; 0.1 μM,0.6
same,Viable,32D-BCR-Abl; 0.1 μM,47.1
same,Apoptotic,32D-BCR-Abl; 1.0 μM,95.3
same,Necrotic,32D-BCR-Abl; 1.0 μM,0.1
same,Viable,32D-BCR-Abl; 1.0 μM,4.6
same,IC50,Ba/F3-insAY + T6701,≥ 1 µM
same,IC50,Ba/F3-delWK + V654A,0.025 to 0.05 µM
same,IC50,Ba/F3-V6559D,0.25 to 0.5 µM
same,IC50,Ba/F3-insAY + V654A,> 1 µM
same,IC50,Ba/F3-delWK,0.0125 to 0.025 µM
same,IC50,Ba/F3-delWK + T6701,0.025 to 0.05 µM
same,IC50,Ba/F3-insAY,> 1 µM
same,IC50,Ba/F3-T6701,0.25 µM
same,IC50,Ba/F3-delWK + Y823D,0.5 to 1 µM
same,Apoptotic,Ba/F3-kit-T6701; 0.01 μM,2.3
same,Necrotic,Ba/F3-kit-T6701; 0.01 μM,0
same,Viable,Ba/F3-kit-T6701; 0.01 μM,97.7
same,Apoptotic,Ba/F3-kit-T6701; 0.1 μM,3.1
same,Necrotic,Ba/F3-kit-T6701; 0.1 μM,0
same,Viable,Ba/F3-kit-T6701; 0.1 μM,96.9
same,Apoptotic,Ba/F3-kit-T6701; 1.0 μM,8.4
same,Necrotic,Ba/F3-kit-T6701; 1.0 μM,0
same,Viable,Ba/F3-kit-T6701; 1.0 μM,91.6
same,Apoptotic,Ba/F3-PDGFRα-T674M; 0.01 μM,9
same,Necrotic,Ba/F3-PDGFRα-T674M; 0.01 μM,0
same,Viable,Ba/F3-PDGFRα-T674M; 0.01 μM,91
same,Apoptotic,Ba/F3-PDGFRα-T674M; 0.1 μM,65.2
same,Necrotic,Ba/F3-PDGFRα-T674M; 0.1 μM,0
same,Viable,Ba/F3-PDGFRα-T674M; 0.1 μM,34.7
same,Apoptotic,Ba/F3-PDGFRα-T674M; 1.0 μM,86.80
same,Necrotic,Ba/F3-PDGFRα-T674M; 1.0 μM,0.1
same,Viable,Ba/F3-PDGFRα-T674M; 1.0 μM,13.2
same,Apoptotic,Ba/F3-PDGFRα-T674I; 0.01 μM,38.1
same,Necrotic,Ba/F3-PDGFRα-T674I; 0.01 μM,0.1
same,Viable,Ba/F3-PDGFRα-T674I; 0.01 μM,61.9
same,Apoptotic,Ba/F3-PDGFRα-T674I; 0.1 μM,84.7
same,Necrotic,Ba/F3-PDGFRα-T674I; 0.1 μM,0.2
same,Viable,Ba/F3-PDGFRα-T674I; 0.1 μM,15.2
same,Apoptotic,Ba/F3-PDGFRα-T674I; 1.0 μM,94.1
same,Necrotic,Ba/F3-PDGFRα-T674I; 1.0 μM,0
same,Viable,Ba/F3-PDGFRα-T674I; 1.0 μM,5.8
same,IC50,Ba/F3-PDGFRα-D842V,1 µM
same,IC50,Ba/F3-TEL/PDGFRβ,< 0.1 µM
same,IC50,Ba/F3-PDGFRα-V561D,> 1 µM

# — US8765747B2, “Fused 2-aminothiazole compounds” (Dana-Farber Cancer Institute, Inc., priority 2009, dated 2014)
